For orientation: ED50 means the dose that gives a 50% effect, or the effect in half of the subjects. Broadly, the LD50 is the dose expected to kill half of the subjects tested. A high value points to a less toxic substance.

Molecules are shown by their SMILES.

The source of these data is patent US4454122A, “Adenosine derivatives of anti-inflammatory and analgesic activity, and therapeutic compositions which contain them as their active principle” (Bioresearch S.r.l., priority 1982, dated 1984).

Data set [1] concerns experimental edema in the rat by carragen. Nature of the data set: experimental edema in the rat by carragen (Winter method), percentage protection. The format is in vivo. Particulars: for inhibition in vivo at 85 mg/kg: 85 mg/kg orally; for inhibition in vivo at 80 mg/kg: 80 mg/kg orally.
The test system is the same in data set [2]. The description is as above. In kind it is in vivo. The protocol:
^ (a) signifies that the product was administered intramuscularly.

A further data set relates to gastro-intestinal system. Nature of the data set: secondary effects on the gastro-intestinal system at ED50 doses (gastric lesions). The format is in vivo, rat. The note with it: at ED50 doses. The protocol:
In the same test, the ED50 of indomethacine is 9 mg/kg.

A short description of data set [3]: lethal dose in the rat and therapeutical index. Particulars: in vivo; edema test in the rat; read-out: therapeutical index (TI).
Data set [4] deals with pleuritis induced in the rat by carragen. As to the kind of experiment: pleuritis induced in the rat by carragen (Velo method). The format is in vivo.
The next data set relates to rat. Particulars: Martelli A., 1973; cited from earlier work.
The next data set has as its system mouse. Nature of the data set: hot plate test on the mouse according to Roberts (analgesic activity). In kind it is in vivo. The protocol: C--The analgesic activity of the products was tested by two tests considered very significant.
In the hot plate test on the mouse according to Roberts (Roberts E. Simonsen D.G. (1966) Biochem. Pharmac. 15, 1875-) the MTA gives a protection of 50% with an oral dose of 37 mg/kg. An approximately equivalent protection of 58% is obtained with 100 mg/kg of amidopyrine administered orally.
(In general: Thermal pain tests record how soon the animal reacts.)

Data set [5] has as its system stretching by phenylquinone. Nature of the data set: stretching test by phenylquinone (analgesic activity). The format is in vivo. The note with it: im; intramuscularly.
Data set [6] can be described thus: acute toxicity, DL50 in the mouse. The note with it: in vivo. An excerpt:
The compounds of the present invention are practically free from acute toxicity when administered orally. They are practically free from toxicity at therapeutic doses for any method of administration. The following values are obtained for MTA and MTA sulphoxide: […]

Data set [7] has as its system platelet aggregation induced by arachidonic acid. As to the kind of experiment: in vitro platelet aggregation induced by arachidonic acid (AA). The format is cell-based. Particulars: MTA 5×10^-4 M or PGI2 5×10^-9 M, each alone; FIG. 3. The protocol:
(2) "in vitro" tests on platelet aggregation induced by arachidonic acid (AA);
Blood was withdrawn without stasis, and an anticoagulant (3.8% sodium citrate) was added to give a blood:citrate ratio of 9:1. Plasma rich in platelets and plasma poor in platelets were obtained by centrifuging at ambient temperature.
The platelet aggregation was estimated using the Born & Cross method (G. V. R. Born and M. J. Cross, J. Physiol., Lond. 168, 178, 1963) on the plasma fraction rich in platelets.
The aggregating agents were used in the following concentrations:
ADP (Sigma) 1 μM; collagen (Horn) 5 μml; arachidonic acid 4×10^-4 M.
The capacity of MTA to increase the inhibiting effect of prostacyclin (PGI2) in aggregation induced by AA was also investigated. In FIG. 3, curve 1 relates to the controls, curve 2 to MTA at a concentration of 5×10^-4 M, curve 3 to PGI2 at a concentration of 5×10^-9 M, and curve 4 to a mixture consisting of 5×10^-4 M MTA and 5×10^-9 M PGI2.

Data set [8] relates to fever induced in the rat by beer yeast. Nature of the data set: fever induced in the rat by beer yeast (antipyretic activity). In kind it is in vivo. Particulars: 200 mg/kg, orally. The protocol: This was measured for the new products by means of fever induced in the rat by beer yeast (Winder C. V. et al (1961) J. Pharmacol. Exp. Ther. 133, 117).
Where [9] appears, read: po, rat, read-out: Percent protection calculated on edema development.
Where [10] appears, read: intramuscular, table 1 and all the tests carried out.

Take `CC(C)CSC[C@H]1O[C@@H](n2cnc3c(N)ncnc32)[C@H](O)[C@@H]1O`: the inhibition in vivo at 85 mg/kg in [1] (setting [9]) is 62%.
On to `CC(C)SC[C@H]1O[C@@H](n2cnc3c(N)ncnc32)[C@H](O)[C@@H]1O`, for which the inhibition in vivo at 80 mg/kg in data set [1] (setting [9]) was 45%.
With `CCC(C)SC[C@H]1O[C@@H](n2cnc3c(N)ncnc32)[C@H](O)[C@@H]1O` (stereo partly drawn), in [1] (setting [9]), the inhibition in vivo at 85 mg/kg was 35%.
For the compound `COc1ccc2c(c1)c(CC(=O)O)c(C)n2C(=O)c1ccc(Cl)cc1` [Indomethacine, reference compound], the inhibition in vivo at 9 mg/kg in data set [2] (Rattus norvegicus, po, read-out: Percent protection calculated on edema development) is 50%. In the data set on gastro-intestinal system, the “secondary effect on the gastro-intestinal system / gastric lesions” value was “serious gastric lesions”. Besides, the selectivity ratio in data set [3] was found to be 1.3. In [4] (10 mg/kg, compared with MTA 75 mg/kg oral), the “protection, compared with that of MTA (in words)” value is “comparable protection”. Besides, the ED50 in [1] (Rattus norvegicus, po, read-out: ED50 (edema test)) worked out at 9 mg/kg. For the same compound, the “LD in the rat” value with rat is 12 mg/kg.
Consider `C[S+]([O-])C[C@H]1O[C@@H](n2cnc3c(N)ncnc32)[C@H](O)[C@@H]1O` (stereo partly drawn) [MTA sulphoxide, methylthioadenosine sulphoxide], for which the inhibition in vivo at 8.6 mg/kg in [2] (im, 8.6 mg/kg intramuscularly, rat, read-out: Percent protection calculated on edema development) was 50%. Besides, the results for the “activity by intramuscular administration (in words)” value in data set [2] (setting [10]) and in data set [1] (setting [10]) were “greater activity” and “particularly active”, respectively. For the same compound, the “protection calculated on the total number of cells present in the exudate” value in data set [4] (80 mg/kg, intramuscularly, rat) was 76.4%. Moreover, the “protection calculated on the volume of the exudate” value in data set [4] (80 mg/kg, intramuscularly, rat) was 75.8%. Besides, the “protection in the hot plate test” value with mouse (20 mg/kg, intramuscularly) is 50%; in the data set with mouse (100 mg/kg, oral), 50%. This compound also returned an ED50 in data set [5] of 10 mg/kg. Further, the median lethal dose (LD50) was 400 mg/kg in [6] (iv, intravenously) and more than 2000 mg/kg in data set [6] (po, orally). Besides, the inhibition in vivo at 156 mg/kg in data set [1] (po, 156 mg/kg orally, rat, read-out: Percent protection calculated on edema development) is 50%.
`CCCCC[C@H](O)/C=C/[C@@H]1[C@H]2C/C(=C/CCCC(=O)O)O[C@H]2C[C@H]1O` [PGI2, reference compound]: the “antiaggregation action alone, AA induced (in words)” value in [7] is “ineffective”.
For `Cc1c(N(C)C)c(=O)n(-c2ccccc2)n1C` [amidopyrine, reference compound], the “protection in the hot plate test” value in the data set with mouse (100 mg/kg, oral) was determined as 58%. In data set [8], this compound showed a temperature reduction of 4.69%.
Take `CCCSC[C@H]1O[C@@H](n2cnc3c(N)ncnc32)[C@H](O)[C@@H]1O` [n = 0 R = (CH2)2CH3, R1 = R2 = H]: the inhibition in vivo at 80 mg/kg in [1] (setting [9]) is 53%.
Consider `CCCCSC[C@H]1O[C@@H](n2cnc3c(N)ncnc32)[C@H](O)[C@@H]1O` [n = 0 R = (CH2)3CH3, R1 = R2 = H], for which, in data set [1] (setting [9]), the inhibition in vivo at 85 mg/kg was 39%.
In the case of `CCCCCSC[C@H]1O[C@@H](n2cnc3c(N)ncnc32)[C@H](O)[C@@H]1O` [n = 0 R = (CH2)4CH3, R1 = R2 = H], in [1] (po, 90 mg/kg orally, rat, read-out: Percent protection calculated on edema development), the inhibition in vivo at 90 mg/kg is 25%.
With `CCCCCCCSC[C@H]1O[C@@H](n2cnc3c(N)ncnc32)[C@H](O)[C@@H]1O` [n = 0 R = (CH2)6CH3, R1 = R2 = H], the inhibition in vivo at 95 mg/kg in [1] (po, 95 mg/kg orally, rat, read-out: Percent protection calculated on edema development) was 20%.
With `CCCCCCCCSC[C@H]1O[C@@H](n2cnc3c(N)ncnc32)[C@H](O)[C@@H]1O` [n = 0 R = (CH2)7CH3, R1 = R2 = H], the inhibition in vivo at 100 mg/kg in [1] (po, 100 mg/kg orally, rat, read-out: Percent protection calculated on edema development) was 47%.
`CCCCCCCCCCSC[C@H]1O[C@@H](n2cnc3c(N)ncnc32)[C@H](O)[C@@H]1O` [n = 0 R = (CH2)9CH3, R1 = R2 = H]: the inhibition in vivo at 106 mg/kg in [1] (po, 106 mg/kg orally, rat, read-out: Percent protection calculated on edema development) is 33%.
On to `CCCCCCCCCCCCSC[C@H]1O[C@@H](n2cnc3c(N)ncnc32)[C@H](O)[C@@H]1O` [n = 0 R = (CH2)11CH3, R1 = R2 =], for which, in [1] (po, 112 mg/kg orally, rat, read-out: Percent protection calculated on edema development), the inhibition in vivo at 112 mg/kg is 10%.
Turning to `Nc1ncnc2c1ncn2[C@@H]1O[C@H](CSCc2ccccc2)[C@@H](O)[C@H]1O` [n = 0 R = CH2C6 H5, R1 = R2 = H], in data set [1] (po, 47 mg/kg orally, rat, read-out: Percent protection calculated on edema development), the inhibition in vivo at 47 mg/kg was 10%.
On to `CCSC[C@H]1O[C@@H](n2cnc3c(N)ncnc32)[C@H](O)[C@@H]1O` [n = 0 R = CH2CH3, R1 = R2 = H, 5'-deoxy-5'-ethylthioadenosine], for which, in data set [1] (setting [9]), the inhibition in vivo at 80 mg/kg was 44%.
On to `CSC[C@H]1O[C@@H](n2cnc3c(N)ncnc32)[C@@H]2OC(C)(C)O[C@@H]21` [n = 0 R = CH3, R1 = H, R2R1 = isopropyl, 5'-deoxy-2',3'-isopropylidene-5'-methylthioadenosine], for which the inhibition in vivo at 91 mg/kg in data set [1] (po, 91 mg/kg orally, rat, read-out: Percent protection calculated on edema development) was 20%.
On to `CSC[C@H]1O[C@@H](n2cnc3c(NC(=O)c4ccccc4)ncnc32)[C@H](OC(=O)c2ccccc2)[C@@H]1OC(=O)c1ccccc1` [n = 0 R = CH3, R1 = R2 = COC6 H5], for which the inhibition in vivo at 164 mg/kg in data set [1] (po, 164 mg/kg orally, rat, read-out: Percent protection calculated on edema development) is 10%.
As for `CSC[C@H]1O[C@@H](n2cnc3c(NC(C)=O)ncnc32)[C@H](OC(C)=O)[C@@H]1OC(C)=O` [n = 0 R = CH3, R1 = R2 = COCH3, N^6,2',3'-triacetyl-5'-deoxy-5'-thioadenosine], the inhibition in vivo at 114 mg/kg in data set [1] (po, 114 mg/kg orally, rat, read-out: Percent protection calculated on edema development) was 47%.
`CSC[C@H]1O[C@@H](n2cnc3c(NS(=O)(=O)c4ccc(C)cc4)ncnc32)[C@H](OS(=O)(=O)c2ccc(C)cc2)[C@@H]1OS(=O)(=O)c1ccc(C)cc1` [n = 0 R = CH3, R1 = R2 = tosyl]: the inhibition in vivo at 204 mg/kg in [1] (po, 204 mg/kg orally, rat, read-out: Percent protection calculated on edema development) is 15%.
